Test results published in patent US9169243B2, “Apoptosis signal-regulating kinase inhibitors” (Gilead Sciences, Inc., priority 2013, dated 2015).

Biological target: recombinant human ASK1 kinase (Homo sapiens (Human), UniProt Q99683)
Test: TR-FRET ASK1 (Apoptosis Signal-Regulating Kinase 1) kinase assay
Assay type: biochemical
Details: TR-FRET/HTRF, 4 nM ASK1, 1 μM STK3 peptide substrate, 100 μM ATP, 3 hr; average of quadruplicate determination
Excerpt: I. TR-FRET ASK1 (Apoptosis Signal-Regulating Kinase 1) Kinase Assay
To evaluate the inhibitory activity of compounds of the invention against ASK1 (Apoptosis Signal-regulating Kinase 1) kinase, its activity was examined using a TR-FRET ASK1 kinase assay which determined the amount of phosphate transferred to a peptide substrate from ATP.
Dephosphorylated recombinant human ASK1 kinase was from Gilead Sciences. Small molecule kinase inhibitor staurosporine (Catalogue #S6942) and dithiothreitol (DTT, catalogue #43815-5G) were obtained from Sigma Chemicals (St. Louis, Mo.). ATP (catalogue #7724) was from Affymetrix (Santa Clara, Calif.) and test compounds were from Gilead Sciences. HTRF KinEASE™-STK S3 kit was obtained from Cisbio (Bedford, Mass.). All other reagents were of the highest grade commercially available.
The assay measures the phosphorylation level of a biotinylated peptide substrate by the ASK1 kinase using HTRF detection. This is a competitive, time-resolved fluorescence resonance energy transfer (TR-FRET) immunoassay, based on HTRF® KinEASE™-STK manual from Cisbio. Test compound, 1 μM STK3 peptide substrate, 4 nM of ASK1 kinase were incubated with 10 mM MOP buffer, pH. 7.0 containing 10 mM Mg-acetate, 0.025% NP-40, 1 mM DTT, 0.05% BSA and 1.5% glycerol for 30 minutes then 100 μM ATP was added to start the kinase reaction and incubated for 3 hr. Peptide antibody labeled with 1×Eu^3+ Cryptate buffer containing 10 mM EDTA and 125 nM Streptavidin XL665 were added to stop the reaction and phosphorylated peptide substrate was detected using Envision 2103 Multilabeled reader from PerkinElmer. The fluorescence was measured at 615 nm (Cryptate) and 665 nm (XL665) and a ratio of 665 nm/615 nm was calculated for each well. The resulting TR-FRET level (a ratio of 665 nm/615 nm) was proportional to the phosphorylation level. Under these assay conditions, the degree of phosphorylation of peptide substrate was linear with time and concentration for the enzyme. The assay system yielded consistent results with regard to Km and specific activities for the enzyme. For inhibition experiments (IC50 values), activities were performed with constant concentrations of ATP, peptide and several fixed concentrations of inhibitors. Staurosporine, the nonselective kinase inhibitor, was used as the positive control. All enzyme activity data are reported as an average of quadruplicate determination.
The IC50 values were calculated following equation: y=Range/{1+(x/IC50)^s}+Background where x and y represent the concentration of inhibitors and enzyme activity, respectively. Enzyme activity is expressed as the amount of Phosphate incorporated into substrate peptide from ATP. Range is the maximum y range (no inhibitor, DMSO control) and s is a slope factor.

Chain of recombinant human ASK1 kinase (Q99683 whole entry): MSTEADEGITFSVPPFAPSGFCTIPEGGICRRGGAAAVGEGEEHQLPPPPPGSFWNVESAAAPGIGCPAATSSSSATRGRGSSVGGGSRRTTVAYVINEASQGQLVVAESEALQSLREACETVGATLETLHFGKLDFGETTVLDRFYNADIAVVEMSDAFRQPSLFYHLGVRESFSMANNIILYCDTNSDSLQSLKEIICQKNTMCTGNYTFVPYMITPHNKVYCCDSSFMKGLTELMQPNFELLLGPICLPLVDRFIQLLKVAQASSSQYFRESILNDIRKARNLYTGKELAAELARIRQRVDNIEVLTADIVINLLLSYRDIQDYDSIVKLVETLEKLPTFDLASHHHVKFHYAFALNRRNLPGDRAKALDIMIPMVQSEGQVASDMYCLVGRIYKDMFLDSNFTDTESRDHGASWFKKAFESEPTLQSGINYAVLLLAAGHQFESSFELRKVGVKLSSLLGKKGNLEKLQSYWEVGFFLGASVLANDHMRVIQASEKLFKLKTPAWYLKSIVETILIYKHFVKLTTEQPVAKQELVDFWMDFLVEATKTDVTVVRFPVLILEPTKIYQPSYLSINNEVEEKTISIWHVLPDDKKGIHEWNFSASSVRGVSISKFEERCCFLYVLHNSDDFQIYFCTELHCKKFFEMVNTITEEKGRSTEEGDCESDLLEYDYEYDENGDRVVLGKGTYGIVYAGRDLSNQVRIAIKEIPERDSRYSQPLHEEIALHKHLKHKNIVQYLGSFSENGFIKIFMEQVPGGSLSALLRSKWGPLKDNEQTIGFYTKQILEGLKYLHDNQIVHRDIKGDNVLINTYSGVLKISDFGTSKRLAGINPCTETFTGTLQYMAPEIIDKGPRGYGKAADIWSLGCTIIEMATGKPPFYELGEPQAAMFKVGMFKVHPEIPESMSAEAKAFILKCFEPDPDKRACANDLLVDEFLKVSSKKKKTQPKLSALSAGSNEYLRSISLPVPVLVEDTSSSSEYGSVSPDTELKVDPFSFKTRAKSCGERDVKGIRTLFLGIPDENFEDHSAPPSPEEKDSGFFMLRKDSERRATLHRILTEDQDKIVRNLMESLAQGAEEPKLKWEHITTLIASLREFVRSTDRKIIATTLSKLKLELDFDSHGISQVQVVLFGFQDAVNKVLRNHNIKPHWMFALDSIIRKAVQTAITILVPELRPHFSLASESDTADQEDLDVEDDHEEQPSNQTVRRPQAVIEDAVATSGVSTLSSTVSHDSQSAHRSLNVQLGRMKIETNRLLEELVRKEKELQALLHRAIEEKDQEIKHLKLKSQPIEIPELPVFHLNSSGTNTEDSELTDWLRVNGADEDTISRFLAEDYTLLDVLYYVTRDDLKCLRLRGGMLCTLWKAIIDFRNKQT

Structure (SMILES)	IC50
C[C@H](n1cnnc1-c1nc(NC(=O)c2cc(-n3cnc(C4CC4)c3)c(N3CCN4CCCC4C3)cn2)cs1)C(F)(F)F (stereo partly drawn) [Compound 37, 4-(4-cyclopropyl-1H-imidazol-1-yl)-5-(hexahydropyrrolo[1,2-a]pyrazin-2(1H)-yl)-N-(2-(4-((S)-1,1,1-trifluoropropan-2-yl)-4H-1,2,4-triazol-3-yl)thiazol-4-yl)picolinamide]	1.8 nM
C[C@H](n1cnnc1-c1nc(NC(=O)c2cc(-n3cnc(C4CC4)c3)c(N3CC4CN(C)CC4C3)cn2)cs1)C(F)(F)F (stereo partly drawn) [Compound 38, 4-(4-cyclopropyl-1H-imidazol-1-yl)-5-(5-methylhexahydropyrrolo[3,4-c]pyrrol-2(1H)-yl)-N-(2-(4-((S)-1,1,1-trifluoropropan-2-yl)-4H-1,2,4-triazol-3-yl)thiazol-4-yl)picolinamide]	2.4 nM
C[C@H](n1cnnc1-c1nc(NC(=O)c2cc(-n3cnc(C4CC4)c3)c(N3CCN4C(=O)OCC4C3)cn2)cs1)C(F)(F)F (stereo partly drawn) [Compound 39, 4-(4-cyclopropyl-1H-imidazol-1-yl)-5-(3-oxotetrahydro-1H-oxazolo[3,4-a]pyrazin-7(3H)-yl)-N-(2-(4-((S)-1,1,1-trifluoropropan-2-yl)-4H-1,2,4-triazol-3-yl)thiazol-4-yl)picolinamide]	2.3 nM
C[C@H](n1cnnc1-c1nc(NC(=O)c2cc(-n3cnc(C4CC4)c3)c(N3CC4CC4C3)cn2)cs1)C(F)(F)F (stereo partly drawn) [Compound 40, 5-(3-azabicyclo[3.1.0]hexan-3-yl)-4-(4-cyclopropyl-1H-imidazol-1-yl)-N-(2-(4-((S)-1,1,1-trifluoropropan-2-yl)-4H-1,2,4-triazol-3-yl)thiazol-4-yl)picolinamide]	2.2 nM
C[C@H](n1cnnc1-c1nc(NC(=O)c2cc(-n3cnc(C4CC4)c3)c(N3CC(N4CCOCC4)C3)cn2)cs1)C(F)(F)F [Compound 41, (S)-4-(4-cyclopropyl-1H-imidazol-1-yl)-5-(3-morpholinoazetidin-1-yl)-N-(2-(4-(1,1,1-trifluoropropan-2-yl)-4H-1,2,4-triazol-3-yl)thiazol-4-yl)picolinamide]	1.9 nM
C[C@H](n1cnnc1-c1nc(NC(=O)c2cc(-n3cnc(C4CC4)c3)c(N3CCN(C4CC4)CC3)cn2)cs1)C(F)(F)F [Compound 42, (S)-4-(4-cyclopropyl-1H-imidazol-1-yl)-5-(4-cyclopropylpiperazin-1-yl)-N-(2-(4-(1,1,1-trifluoropropan-2-yl)-4H-1,2,4-triazol-3-yl)thiazol-4-yl)picolinamide]	1.8 nM
C[C@H](n1cnnc1-c1nc(NC(=O)c2cc(-n3cnc(C4CC4)c3)c(N3CCN(CC4CC4)CC3)cn2)cs1)C(F)(F)F [Compound 43, (S)-4-(4-cyclopropyl-1H-imidazol-1-yl)-5-(4-(cyclopropylmethyl)piperazin-1-yl)-N-(2-(4-(1,1,1-trifluoropropan-2-yl)-4H-1,2,4-triazol-3-yl)thiazol-4-yl)picolinamide]	1.8 nM
C[C@H](n1cnnc1-c1nc(NC(=O)c2cc(-n3cnc(C4CC4)c3)c(N3CCC4(CC3)COC4)cn2)cs1)C(F)(F)F [Compound 44, (S)-4-(4-cyclopropyl-1H-imidazol-1-yl)-5-(2-oxa-7-azaspiro[3.5]nonan-7-yl)-N-(2-(4-(1,1,1-trifluoropropan-2-yl)-4H-1,2,4-triazol-3-yl)thiazol-4-yl)picolinamide]	2.1 nM
C[C@H](n1cnnc1-c1nc(NC(=O)c2cc(-n3cnc(C4CC4)c3)c(N3CC4(CCOCC4)C3)cn2)cs1)C(F)(F)F [Compound 45, (S)-4-(4-cyclopropyl-1H-imidazol-1-yl)-5-(7-oxa-2-azaspiro[3.5]nonan-2-yl)-N-(2-(4-(1,1,1-trifluoropropan-2-yl)-4H-1,2,4-triazol-3-yl)thiazol-4-yl)picolinamide]	2.6 nM
